The values that follow come from article PMC8770593 (Nature Communications, 2022).

In one assay the target is T1, α1BARXTAL (Homo sapiens, UniProt P35368, D191Y/DEL249-283/E194V/F334L/G183V/I116T/P349L/S150Y/S168C/S95C/T295M/V124M/V333L).
T1 construct: deletion of N-terminal residues M1–N34 and intracellular loop three (ICL3) residues K249–L283, and fusion of DARPin D12[43],[68],[69] to residue C350^7.55; MBP (N, cleaved yes); His6-tag (N, cleaved yes); DARPin D12, modified (ΔS1,D2); L3K, G4A, K5R, A13K; thioredoxin A (TrxA) (C, cleaved yes); His10-tag (C, cleaved yes); made in house; host or cells: E. coli BL21 (fhuA2 deletion)
Briefly: CPM-based thermostability assay of ligand-bound receptor. As to conditions: cyclazosin-bound α1BARXTAL.

For assay [1], the target named is α1BAR-α2C(YLLY;ECL2) chimera (Homo sapiens, UniProt P35368, A122L/DEL188-193/E186Y/E194Q/E199D/F202W/G179P/I178F/INS181VSLYRQP/K185A/L182D/L314Y/P201T/T198N/V197L/W121Y/W184A). Briefly: HTRF ligand-binding assay on whole transfected HEK293T/17 cells (QAPB saturation; competition with QAPB tracer). For orientation: In TR-FRET formats the signal depends on donor and acceptor labels being close together.

The target of assay [2] is rat cerebral cortex tissue containing all three α2AR subtypes. Also on record: method as in Giardinà, D. et al., J. Med. Chem. 39, 4602-4607 (1996). As to conditions: ref Giardinà, D. et al., J. Med. Chem. 39, 4602-4607 (1996); cited from earlier work.
The next assay has as its target T2, α1BAR-α2C(YLLY) chimera (Homo sapiens, UniProt P35368, A122L/L314Y/V197L/W121Y).
T2 sequence (P35368 35-520 W121Y/A122L/V197L/L314Y): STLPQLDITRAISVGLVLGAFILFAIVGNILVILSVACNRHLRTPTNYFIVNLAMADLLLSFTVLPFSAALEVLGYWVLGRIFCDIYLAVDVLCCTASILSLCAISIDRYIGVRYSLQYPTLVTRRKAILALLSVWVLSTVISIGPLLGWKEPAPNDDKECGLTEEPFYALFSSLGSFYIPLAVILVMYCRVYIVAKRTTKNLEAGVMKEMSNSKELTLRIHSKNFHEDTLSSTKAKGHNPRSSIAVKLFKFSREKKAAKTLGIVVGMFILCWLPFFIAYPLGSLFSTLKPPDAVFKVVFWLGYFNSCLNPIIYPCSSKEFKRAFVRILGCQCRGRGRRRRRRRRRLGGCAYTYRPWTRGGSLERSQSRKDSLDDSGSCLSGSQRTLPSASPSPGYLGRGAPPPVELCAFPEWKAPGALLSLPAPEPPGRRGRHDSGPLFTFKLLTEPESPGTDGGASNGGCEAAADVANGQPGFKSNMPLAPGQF
Briefly: HTRF ligand-binding assay on whole transfected HEK293T/17 cells (QAPB saturation; competition with QAPB tracer).

T1 sequence (P35368 with tags, fused parts or gaps with the stated changes): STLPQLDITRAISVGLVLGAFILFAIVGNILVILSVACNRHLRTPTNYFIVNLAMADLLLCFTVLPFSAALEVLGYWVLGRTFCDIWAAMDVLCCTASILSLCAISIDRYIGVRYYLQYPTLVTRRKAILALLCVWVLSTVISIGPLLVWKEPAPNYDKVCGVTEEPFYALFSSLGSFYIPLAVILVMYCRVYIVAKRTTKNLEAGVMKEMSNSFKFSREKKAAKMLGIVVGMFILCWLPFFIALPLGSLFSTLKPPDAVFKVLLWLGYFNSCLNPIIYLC
Sequence of α1BAR-α2C(YLLY;ECL2) chimera (P35368 with tags, fused parts or gaps with the stated changes): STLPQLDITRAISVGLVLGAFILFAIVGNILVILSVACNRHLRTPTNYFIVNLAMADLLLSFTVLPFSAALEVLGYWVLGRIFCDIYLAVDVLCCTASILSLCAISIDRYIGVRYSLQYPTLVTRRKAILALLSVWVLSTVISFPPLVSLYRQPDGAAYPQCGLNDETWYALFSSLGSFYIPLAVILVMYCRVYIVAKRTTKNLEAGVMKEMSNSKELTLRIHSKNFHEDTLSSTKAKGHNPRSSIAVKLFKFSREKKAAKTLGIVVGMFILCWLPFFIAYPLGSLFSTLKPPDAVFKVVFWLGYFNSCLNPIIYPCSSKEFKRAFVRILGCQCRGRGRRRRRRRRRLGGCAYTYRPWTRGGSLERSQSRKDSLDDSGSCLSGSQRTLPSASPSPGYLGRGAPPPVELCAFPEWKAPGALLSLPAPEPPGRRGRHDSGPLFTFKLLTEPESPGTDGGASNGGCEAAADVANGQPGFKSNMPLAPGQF

A word on the Ki: it is the equilibrium dissociation constant of an inhibitor or competing ligand from its target. The low end stands for higher affinity, the high end for lower affinity. Take `COc1cc2nc(N3CCN(C(=O)c4ccco4)[C@H]4CCCC[C@H]43)nc(N)c2cc1OC` (relative stereo) [cyclazosin, [4-(4-amino-6,7-dimethoxyquinazolin-2-yl)-cis-octahydroquinoxalin-1-yl] furan-2-ylmethanone]: the “apparent Tm of the ligand-bound receptor” value on α1BARXTAL is “≈ 71 °C”. For the same compound, the Ki in assay [1] is 2.69 nM; at α1BAR-α2C(YLLY) chimera (pKi (competition binding), competition with 50 nM QAPB tracer, whole cells, mean) it was 3.72 nM. Besides, in assay [2], the “affinity as pK value (RLBA)” value is 6.17. Moreover, the “weaker affinity compared to wild-type α1BAR” value on α1BAR-α2C(YLLY) chimera (α1BAR-α2C(YLLY) vs wild-type α1BAR) is given as approximately 4 fold.
